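Method: 48-hour compound exposure of cells in 96-well plates, five concentrations, linear interpolation of endpoints. At the GI50, growth is halved.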 Activity calls are given as the source filed them. Cut-off read from the data, not from the text of the source: active = GI50 up to about 1.1 µM and inactive = higher. Starred links: 1 amine or outer side, 2 acyl side, 3 side chain; linkers in the order of their positions; H or OH if unused. Positions of bridges follow the written chain, without caps; N, C: chain ends. Non-standard residues stand in square brackets, D forms with d. Residues, ends and D or L forms follow the SMILES beside them. Chains are numbered I, II in the order given. Actinocin(1to9) = Cc1c2oc3c(C)ccc(C(=O)[*:2])c3nc-2c(C(=O)[*:1])c(N)c1=O; aThr = C[C@H](O)[C@H](N)C(=O)O; NMeV = CN[C@H](C(=O)O)C(C)C; Sar = CNCC(=O)O
Assays:
Assay in all cases: NCI anticancer screen, dose series, 48 h
SNB-75 = system: SNB-75
KM12 = system: KM12
SN12C = system: SN12C
SK-OV-3 = system: SK-OV-3
LOX IMVI = system: LOX IMVI
DMS-114 = system: DMS-114
SR = system: SR
COLO 205 = system: COLO 205
OVCAR-4 = system: OVCAR-4
SNB-19 = system: SNB-19
HCT-15 = system: HCT-15
OVCAR-8 = system: OVCAR-8
HOP-92 = system: HOP-92
CCRF-CEM = system: CCRF-CEM
EKVX = system: EKVX
MDA-MB-435 = system: MDA-MB-435
NCI-H226 = system: NCI-H226
786-0 = system: 786-0
OVCAR-5 = system: OVCAR-5
BT-549 = system: BT-549

COc1ccc(-c2nc(N)n(C)c2SSc2c(-c3ccc(OC)cc3)nc(N)n2C)cc1
GI50 (SNB-75): 3340 nM (inactive) | GI50 (KM12): 12900 nM (inactive) | GI50 (SN12C): 11300 nM (inactive) | GI50 (SK-OV-3): 18600 nM (inactive) | GI50 (LOX IMVI): 2030 nM (inactive) | GI50 (DMS-114): 2260 nM (inactive) | GI50 (SR): 2230 nM (inactive) | GI50 (COLO 205): 2190 nM (inactive) | GI50 (OVCAR-4): 6590 nM (inactive) | GI50 (SNB-19): 12900 nM (inactive) | GI50 (HCT-15): 3040 nM | GI50 (OVCAR-8): 5810 nM (inactive) | GI50 (HOP-92): 2280 nM (inactive) | GI50 (CCRF-CEM): 2760 nM (inactive) | GI50 (EKVX): 20800 nM (inactive) | GI50 (MDA-MB-435): 3920 nM (inactive) | GI50 (NCI-H226): 17400 nM (inactive) | GI50 (786-0): 5770 nM (inactive) | GI50 (OVCAR-5): 6850 nM (inactive) | GI50 (BT-549): 2320 nM (inactive)

Cc1c2oc3c(C)ccc(C(=O)N[C@@H]4C(=O)N[C@H](C(C)C)C(=O)N5CCC[C@H]5C(=O)N(C)CC(=O)N(C)[C@@H](C(C)C)C(=O)O[C@H]4C)c3nc-2c(C(=O)N[C@@H]2C(=O)N[C@H](C(C)C)C(=O)N3CCC[C@H]3C(=O)N(C)CC(=O)N(C)[C@@H](C(C)C)C(=O)O[C@H]2C)c(N)c1=O (I: [aThr][dV]P[Sar][NMeV] / II: [aThr][dV]P[Sar][NMeV]; ester I:1-I:C, II:1-II:C; linker I:N-II:N via Actinocin(1to9))
GI50 (SNB-75): 2.3 nM (active) | GI50 (KM12): 1.28 nM (active) | GI50 (SN12C): 1.85 nM (active) | GI50 (SK-OV-3): 8.69 nM (active) | GI50 (LOX IMVI): 0.518 nM (active) | GI50 (DMS-114): 2.95 nM (active) | GI50 (SR): 0.31 nM (active) | GI50 (COLO 205): 1.06 nM (active) | GI50 (OVCAR-4): 5.83 nM (active) | GI50 (SNB-19): 1.61 nM (active) | GI50 (HCT-15): 20 nM | GI50 (OVCAR-8): 1.65 nM (active) | GI50 (HOP-92): 3.14 nM (active) | GI50 (CCRF-CEM): 0.863 nM (active) | GI50 (EKVX): 12 nM (active) | GI50 (MDA-MB-435): 0.871 nM (active) | GI50 (NCI-H226): 1.95 nM (active) | GI50 (786-0): 0.951 nM (active) | GI50 (OVCAR-5): 6.11 nM (active) | GI50 (BT-549): 1.69 nM (active)

Reference: ChEMBL document CHEMBL1201862, “PubChem BioAssay data set” (2004)
